From publication PMC10143053, “Probing the Interactions of 31 Mycotoxins with Xanthine Oxidase: Alternariol, Alternariol-3-Sulfate, and α-Zearalenol Are Allosteric Inhibitors of the Enzyme” (Toxins, 2023)
Read-outs that look alike come from different tables or passages of the source.

Target: T1, xanthine oxidase (Bos taurus, UniProt P80457)
T1 construct: gene XDH
Assay: biochemical

T1 sequence (P80457 2-1332): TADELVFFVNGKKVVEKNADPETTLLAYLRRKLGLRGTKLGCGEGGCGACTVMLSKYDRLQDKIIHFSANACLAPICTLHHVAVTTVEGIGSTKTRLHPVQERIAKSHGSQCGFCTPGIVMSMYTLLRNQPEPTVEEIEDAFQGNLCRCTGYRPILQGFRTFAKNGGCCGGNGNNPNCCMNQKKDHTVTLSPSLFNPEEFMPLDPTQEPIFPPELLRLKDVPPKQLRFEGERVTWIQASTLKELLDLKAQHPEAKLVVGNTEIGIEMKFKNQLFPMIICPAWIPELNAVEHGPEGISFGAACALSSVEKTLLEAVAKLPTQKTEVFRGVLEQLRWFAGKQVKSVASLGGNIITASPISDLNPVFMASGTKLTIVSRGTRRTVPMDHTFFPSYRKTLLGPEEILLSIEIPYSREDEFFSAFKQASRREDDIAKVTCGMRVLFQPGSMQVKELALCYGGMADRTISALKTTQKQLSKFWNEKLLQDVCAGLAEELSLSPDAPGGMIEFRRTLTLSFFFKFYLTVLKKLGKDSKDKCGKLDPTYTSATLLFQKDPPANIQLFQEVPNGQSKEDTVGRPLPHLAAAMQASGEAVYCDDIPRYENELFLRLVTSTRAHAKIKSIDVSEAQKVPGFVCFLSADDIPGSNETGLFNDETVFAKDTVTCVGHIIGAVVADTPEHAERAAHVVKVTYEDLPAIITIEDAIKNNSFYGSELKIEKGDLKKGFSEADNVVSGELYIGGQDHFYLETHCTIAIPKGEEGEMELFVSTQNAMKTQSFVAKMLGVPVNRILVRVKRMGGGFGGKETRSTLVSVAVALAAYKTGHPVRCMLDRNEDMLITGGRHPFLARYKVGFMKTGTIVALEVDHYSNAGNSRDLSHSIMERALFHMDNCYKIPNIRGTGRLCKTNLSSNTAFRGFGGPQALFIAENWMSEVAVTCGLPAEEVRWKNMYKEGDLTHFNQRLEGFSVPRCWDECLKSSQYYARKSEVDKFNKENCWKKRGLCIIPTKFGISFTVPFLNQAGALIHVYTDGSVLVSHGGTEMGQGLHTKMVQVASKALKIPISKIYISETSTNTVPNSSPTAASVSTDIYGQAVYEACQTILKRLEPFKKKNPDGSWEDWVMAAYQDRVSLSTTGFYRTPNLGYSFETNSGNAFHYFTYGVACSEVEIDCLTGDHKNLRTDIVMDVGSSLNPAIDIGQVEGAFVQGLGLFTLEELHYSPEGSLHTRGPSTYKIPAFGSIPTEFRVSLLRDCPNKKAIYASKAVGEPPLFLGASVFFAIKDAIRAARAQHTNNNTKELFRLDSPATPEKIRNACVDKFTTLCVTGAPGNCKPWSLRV

**Q.** How did the IC50 turn out when `Cc1cc(O)cc2oc(=O)c3c(O)cc(O)cc3c12` [AOH, alternariol] was run?
**A.** 10.6 µM

**Q.** How did the IC50 (read-out: IC50) turn out when `Cc1cc(OS(=O)(=O)O)cc2oc(=O)c3c(O)cc(O)cc3c12` [AS, alternariol-3-sulfate] was run?
**A.** 15 µM

**Q.** With `C[C@H]1CCC[C@H](O)CCC/C=C/c2cc(O)cc(O)c2C(=O)O1` [α-ZEL, α-zearalenol] as the molecule, how does the IC50 (read-out: IC50) read?
**A.** 17.1 µM
